# Measured values as given in PMC11855827, “High-Throughput Screening of Five Compound Libraries for Anthelmintic Activity and Toxicity Leads to the Discovery of Two Flavonoid Compounds” (International Journal of Molecular Sciences, 2025).
# Counter-ions that a name gives are not always drawn. Like-named read-outs stand apart in the source and are kept apart here.
# System: C. elegans
# Experiment: microbe, parasite or virus in culture
# Conditions: Caenorhabditis elegans
# [1] = 0 h, read-out: Percentage of motility inhibition 0 h, Table S2, C. elegans SS assay, 110 μM, 0 h, averages of 4 data points
# [2] = 24 h, read-out: Percentage of motility inhibition 24 h, Table S2, C. elegans SS assay, 110 μM, 24 h, averages of 4 data points
# [3] = 0 h, read-out: Percentage of motility inhibition 0 h
# [4] = 24 h, read-out: Percentage of motility inhibition 24 h
Structure (SMILES),inhibition at 110 µM [1] [%],inhibition at 110 µM [2] [%],inhibition at 110 µM [3] [%],inhibition at 110 µM [4] [%]
CC1(C)CC[C@]2(CO)CC[C@]3(C)C(=CC[C@@H]4[C@@]5(C)CC[C@H](O)C(C)(C)[C@@H]5CC[C@]43C)[C@@H]2C1 [Erythrodiol],11,68,–,–
Oc1ccc2[nH]ccc2c1 [5‐Hydroxyindole],28,9,–,–
COc1ccccc1O [Guaiacol],6,10,–,–
CC(=O)O[C@@]12CO[C@@H]1C[C@H](O)[C@@]1(C)C(=O)[C@H](O)C3=C(C)[C@@H](OC(=O)[C@H](O)[C@@H](NC(=O)OC(C)(C)C)c4ccccc4)C[C@@](O)([C@@H](OC(=O)c4ccccc4)[C@H]21)C3(C)C [Docetaxel],1,15,–,–
O=c1cc(-c2ccc(O)c(-c3c(O)cc(O)c4c(=O)cc(-c5ccc(O)cc5)oc34)c2)oc2cc(O)cc(O)c12 [Amentoflavone],0,0,–,–
C=C[C@H]1CN2CC[C@@]3(C(=O)Nc4ccccc43)[C@@H]2C[C@@H]1/C(=C\OC)C(=O)OC [Isocorynoxeine],0,0,–,–
CC1(C)[C@@H](O[C@H]2O[C@H](C(=O)O)[C@@H](O)[C@H](O)[C@H]2O[C@@H]2O[C@H](C(=O)O)[C@@H](O)[C@H](O)[C@H]2O)CC[C@]2(C)[C@H]3C(=O)C=C4[C@@H]5C[C@@](C)(C(=O)O)CC[C@]5(C)CC[C@@]4(C)[C@]3(C)CC[C@@H]12 [Glycyrrhizic acid],0,0,–,–
COC(=O)C1=CO[C@@H](O[C@@H]2O[C@H](CO)[C@@H](O)[C@H](O)[C@H]2O)[C@@H]2[C@H](C)O[C@@H](O)C[C@H]12 [Morroniside],5,42,–,–
COc1cc2c(c(OC)c1OC)-c1ccc(OC)c(=O)cc1[C@@H](NC(C)=O)CC2 [Colchicine],–,–,0,6
COc1ccc(O)cc1 [Mequinol],16,11,–,–
C=C[C@@]1(C)Cc2occ(C)c2[C@@H]2OC(=O)C(=C)[C@@H]21 [Isolinderalactone],13,9,–,–
C[C@H](Cc1ccc(O)c(O)c1)[C@@H](C)Cc1ccc(O)c(O)c1 [Masoprocol],7,17,–,–
C[C@@H]1CCO[C@H]2Cn3cc(C(=O)NCc4ccc(F)cc4F)c(=O)c(O)c3C(=O)N12 [Dolutegravir],25,3,–,–
C[C@H](CCC(=O)O)[C@H]1CC[C@H]2[C@@H]3CC[C@@H]4C[C@H](O)CC[C@]4(C)[C@H]3C[C@H](O)[C@]12C [Deoxycholic acid],29,12,–,–
CC(C)=C1CC[C@@H](C)CC1=O [Pulegone],6,5,–,–
COc1ccc(-c2cc(=O)c3c(OC)c(OC)c(OC)c(OC)c3o2)cc1OC [Nobiletin],0,0,–,–
O=C1c2cccc(O)c2C(=O)c2c(O)cccc21 [Danthron],21,9,–,–
O=C(CBr)N1CC([N+](=O)[O-])([N+](=O)[O-])C1 [RRx‐001],19,6,–,–
Cc1nc(C)c(C)nc1C [Ligustrazine],0,2,–,–
CC(C)(C)C(=O)C(Oc1ccc(Cl)cc1)n1ccnc1 (stereo not drawn) [Climbazole],53,2,–,–
C[C@@H](O)[C@H]1C(=O)N2C(C(=O)[O-])=C(SC3Cn4cnc[n+]4C3)[C@H](C)[C@H]12 (stereo partly drawn) [Biapenem],18,3,–,–
Cc1cn([C@H]2C=C[C@@H](CO)O2)c(=O)[nH]c1=O [Stavudine],25,3,–,–
CCCCC(C#N)(Cn1cncn1)c1ccc(Cl)cc1 (stereo not drawn) [Myclobutanil],30,12,–,–
CN(C)[C@@H]1C(O)=C(C(N)=O)C(=O)[C@@]2(O)C(O)=C3C(=O)c4c(O)cccc4[C@@](C)(O)[C@H]3[C@H](O)[C@@H]12 [Oxytetracycline],20,13,–,–
Oc1cc(O)c2c(c1)O[C@@H](c1cc(O)c(O)c(O)c1)[C@H](O)C2 [(‐)‐Gallocatechin],–,–,43,5
C[C@]1(COc2ccc(N3CCC(Oc4ccc(OC(F)(F)F)cc4)CC3)cc2)Cn2cc([N+](=O)[O-])nc2O1 [Delamanid],42,21,–,–

Structure (SMILES),inhibition at 110 µM [1] [%],inhibition at 110 µM [2] [%],inhibition at 110 µM [3] [%],inhibition at 110 µM [4] [%]
C[C@@H]1O[C@@H](Oc2cc(O)c3c(=O)c(O[C@@H]4O[C@@H](C)[C@H](O)[C@@H](O)[C@H]4O)c(-c4ccc(O)cc4)oc3c2)[C@H](O)[C@H](O)[C@H]1O [Kaempferitrin],4,16,–,–
C/C=C1/C[C@@H](C)[C@@](C)(O)C(=O)OCC2=CCN3CC[C@@H](OC1=O)[C@@H]23 [Senecionine],–,–,0,24
COc1cc(O)c2c(=O)c(-c3ccc(O)cc3)coc2c1 [Prunetin],0,7,–,–
CC1(C)CC[C@]2(C(=O)O)[C@H](O)C[C@]3(C)C(=CC[C@@H]4[C@@]5(C)CC[C@H](O)[C@@](C)(C=O)[C@@H]5CC[C@]43C)[C@@H]2C1 [Quillaic acid],14,16,–,–
CCCCCCCCCC(=O)O[C@H]1CC[C@H]2[C@@H]3CCC4=CC(=O)CC[C@@H]4[C@H]3CC[C@]12C [Nandrolone decanoate],29,31,–,–
COc1ccc(Cc2cnc(N)nc2N)cc1OC [Diaveridine],17,32,–,–
CC(=O)OC(C)(C)C1CC=C(C)CC1 (stereo not drawn) [α-Terpinyl acetate],18,28,–,–
C/C=C1\C(=O)C[C@H]2[C@@H]3CCC4=CC(=O)CC[C@]4(C)[C@H]3CC[C@]12C [Guggulsterone],–,–,0,17
C=C[C@@]12CN(C)[C@H]3C[C@]14C(=Nc1ccccc14)[C@H]1C[C@@H]2[C@@H]3CO1 [Koumine],16,18,–,–
CC(=O)O[C@H]1C[C@@]2(C)[C@@H](C[C@@H](O)[C@H]3[C@@]4(C)CC[C@@H](O)[C@@H](C)[C@@H]4CC[C@@]32C)/C1=C(\CCC=C(C)C)C(=O)O [Fusidic acid],0,1,–,–
CC(C)=CCC[C@](C)(O[C@@H]1O[C@H](CO)[C@@H](O)[C@H](O)[C@H]1O)[C@H]1CC[C@]2(C)[C@@H]1[C@H](O)C[C@@H]1[C@@]3(C)CC[C@H](O)C(C)(C)[C@@H]3[C@@H](O[C@@H]3O[C@H](CO)[C@@H](O)[C@H](O)[C@H]3O[C@@H]3O[C@@H](C)[C@H](O)[C@@H](O)[C@H]3O)C[C@]12C [Ginsenoside Re],0,0,–,–
Cc1nccc2c1[nH]c1ccccc12 [Harmane],0,6,–,–
C[C@H](C[C@H](O)[C@@H](O)C(C)(C)O)C1=C2C[C@H](O)[C@H]3[C@@]4(C)CCC(=O)C(C)(C)[C@@H]4CC[C@]3(C)[C@@]2(C)CC1 [Alisol A],3,2,–,–
CC[C@H]1CN2CC[C@H]1C[C@H]2[C@H](O)c1ccnc2ccc(OC)cc12 [Hydroquinine],0,0,–,–
C=C(C)[C@@H]1CC[C@]2(CO)CC[C@]3(C)[C@H](CC[C@@H]4[C@@]5(C)CC[C@H](O)C(C)(C)[C@@H]5CC[C@]43C)[C@@H]12 [Betulin],0,0,–,–
O=C(O)[C@H]1O[C@@H](Oc2c(O)cc(O)c3c(=O)c(O)c(-c4ccc(O)c(O)c4)oc23)[C@H](O)[C@@H](O)[C@@H]1O [Hibifolin],6,1,–,–
C=C(CCC=C(C)C)[C@H]1CC[C@]2(C)[C@@H]1[C@H](O)C[C@@H]1[C@@]3(C)C[C@@H](O)[C@H](O[C@@H]4O[C@H](CO)[C@@H](O)[C@H](O)[C@H]4O[C@@H]4O[C@H](CO)[C@@H](O)[C@H](O)[C@H]4O)C(C)(C)[C@@H]3CC[C@]12C [Damulin B],9,16,–,–
CCCCCCCC/C=C\CCCCCCCC(=O)O [Oleic acid],0,0,–,–
CCC12C=CCN3CC[C@@]4(c5ccc(OC)cc5N(C)[C@H]4[C@@](O)(C(=O)OC)[C@@H]1OC(C)=O)[C@@H]32 (stereo partly drawn) [Vindoline],14,0,–,–
CC(=O)OC[C@]12[C@H](OC(C)=O)[C@H](OC(C)=O)[C@@H]3[C@@H](OC(C)=O)[C@@]14O[C@@]3(C)COC(=O)c1cccnc1CCC(C)C(=O)O[C@@H]([C@H](OC(=O)c1ccccc1)[C@@H]2OC(C)=O)[C@]4(C)O (stereo partly drawn) [Wilforine],23,9,–,–
C=C1C[C@]23C[C@@]1(O)CC[C@H]2[C@@]12C=C[C@H](O)[C@@](C)(C(=O)O1)[C@H]2[C@@H]3C(=O)O [Gibberellic acid],17,22,–,–
O=C(O)C1=CCCNC1 [Guvacine hydrochloride],0,0,–,–
OCc1ccccc1 [Benzyl alcohol],2,4,–,–
CN/C(=N/CC1CCOC1)N[N+](=O)[O-] (stereo not drawn) [Dinotefuran],–,–,7,0
COC(=O)Nc1nc2ccc([S+]([O-])c3ccccc3)cc2[nH]1 (stereo not drawn) [Oxfendazole],12,5,–,–
